Reference: PubChem BioAssay AID330 (DTP/NCI, 2004)
Several values for one entry are separate records, joined by “and”; a condition that tells them apart may be missing. Equal values may be shown once. Toxic doses and inconclusive results are not listed. The calls were made as follows: active = survival T/C of 150% or more; inactive = T/C below 125% in these data.

System: P388 leukemia ip, CD2F1 mice, survival T/C
Assay: NCI In Vivo Anticancer Drug Screen. Data for tumor model P388 Leukemia (intraperitoneal) in CD2F1 (CDF1) mice
Settings: endpoint: median survival time, higher = longer survival
Summary of the method: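 Mice carrying the transplanted tumor received test compound or vehicle. Survival was recorded in each group, and the value is the treated-group measurement divided by that of the vehicle-treated control group.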

[1] = dose: 25.0 mg/kg/injection, schedule: Q01DX009 (ip), vehicle: saline
[2] = dose: 50.0 mg/kg/injection, schedule: Q01DX009 (ip), vehicle: saline
[3] = dose: 100.0 mg/kg/injection, schedule: Q01DX009 (ip), vehicle: saline
[4] = dose: 50.0 mg/kg/injection, schedule: Q01DX009 (ip), vehicle: saline with Tween-80
[5] = dose: 100.0 mg/kg/injection, schedule: Q01DX009 (ip), vehicle: saline with Tween-80
[6] = dose: 200.0 mg/kg/injection, schedule: Q01DX009 (ip), vehicle: saline with Tween-80
[7] = dose: 60.0 mg/kg/injection, schedule: Q01DX005 (ip), vehicle: saline with Tween-80
[8] = dose: 120.0 mg/kg/injection, schedule: Q01DX005 (ip), vehicle: saline with Tween-80
[9] = dose: 240.0 mg/kg/injection, schedule: Q01DX005 (ip), vehicle: saline with Tween-80
[10] = dose: 6.25 mg/kg/injection, schedule: Q01DX005 (ip), vehicle: saline with Tween-80
[11] = dose: 12.5 mg/kg/injection, schedule: Q01DX005 (ip), vehicle: saline with Tween-80
[12] = dose: 25.0 mg/kg/injection, schedule: Q01DX005 (ip), vehicle: saline with Tween-80

Measured: T/C

COc1cc2cnc(-c3ccc(Cl)c(Cl)c3)cc2cc1OC
inactive: [1] 100 % of control | [2] 97 % of control | [3] 89 % of control

CC1CCC=CC(=O)C1 (centres undefined)
inactive: dose: 100.0 mg/kg/injection, schedule: Q04DX003 (ip), vehicle: Klucel (hydroxypropylcellulose) (HPC) 102 % of control | dose: 200.0 mg/kg/injection, schedule: Q04DX003 (ip), vehicle: Klucel (hydroxypropylcellulose) (HPC) 108 % of control

CCC[C@@H]1[C@@H](CCC)N1C(=N)OCC
inactive: dose: 12.5 mg/kg/injection, schedule: Q01DX005 (ip), vehicle: suspension in saline 99 % of control | dose: 25.0 mg/kg/injection, schedule: Q01DX005 (ip), vehicle: suspension in saline 106 % of control | dose: 50.0 mg/kg/injection, schedule: Q01DX005 (ip), vehicle: saline 103 % of control | dose: 50.0 mg/kg/injection, schedule: Q01DX005 (ip), vehicle: suspension in saline 106 % of control

c1ccc2c(c1)NC(c1ccc3c(c1)Sc1cc(C4Nc5ccccc5N4)ccc1O3)N2
inactive: dose: 50.0 mg/kg/injection, schedule: Q01DX005 (ip), vehicle: saline with Tween-80 95 % of control | dose: 100.0 mg/kg/injection, schedule: Q01DX005 (ip), vehicle: saline with Tween-80 102 % of control | dose: 200.0 mg/kg/injection, schedule: Q01DX005 (ip), vehicle: saline with Tween-80 100 % of control

ClCSc1nc2cc(Cl)ccc2s1
inactive: [4] 95 % of control | [5] 100 % of control | [6] 95 % of control

NC(=O)CC1(O)CCCCC1
inactive: [1] 100 % of control | [2] 100 % of control | [3] 100 % of control

NC(=S)N/N=C/c1c(-c2ccccc2)nc2n1CCS2
inactive: dose: 100.0 mg/kg/injection, schedule: Q01DX001 (ip), vehicle: Klucel (hydroxypropylcellulose) (HPC) 100 % of control | dose: 200.0 mg/kg/injection, schedule: Q01DX001 (ip), vehicle: Klucel (hydroxypropylcellulose) (HPC) 104 % of control | dose: 400.0 mg/kg/injection, schedule: Q01DX001 (ip), vehicle: Klucel (hydroxypropylcellulose) (HPC) 109 % of control

CCCCN1CCN(c2ccc([N+](=O)[O-])c3no[n+]([O-])c23)CC1
inactive: dose: 8.0 mg/kg/injection, schedule: Q04DX003 (ip), vehicle: suspension in saline 102 % of control | dose: 16.0 mg/kg/injection, schedule: Q04DX003 (ip), vehicle: suspension in saline 99 % of control | dose: 32.0 mg/kg/injection, schedule: Q04DX003 (ip), vehicle: suspension in saline 108 % of control

O=C1NC2(CN3CCC2CC3)C(=O)N1CN(Cc1ccccc1)c1ccccc1 (centres undefined)
inactive: [7] 99 % of control | [8] 99 % of control | [9] 99 % of control

Fc1ccc2cc3cccc[n+]3cc2c1
inactive: [10] 100 % of control | [11] 99 % of control | [12] 99 % of control

COC(=O)c1cc(Cl)ccc1NCC(N)c1ccccc1 (centres undefined)
inactive: dose: 30.0 mg/kg/injection, schedule: Q01DX005 (ip), vehicle: saline with Tween-80 99 % of control | [7] 101 % of control and 97 % of control

O=C1OC(c2ccccc2Br)=N/C1=C/c1ccccc1
inactive: dose: 50.0 mg/kg/injection, schedule: Q01DX005 (ip), vehicle: Klucel (hydroxypropylcellulose) (HPC) 99 % of control | dose: 100.0 mg/kg/injection, schedule: Q01DX005 (ip), vehicle: Klucel (hydroxypropylcellulose) (HPC) 91 % of control | dose: 200.0 mg/kg/injection, schedule: Q01DX005 (ip), vehicle: Klucel (hydroxypropylcellulose) (HPC) 98 % of control

O=C(OCC1OC(C2N(c3ccccc3)CCN2c2ccccc2)C(OC(=O)c2ccccc2)C1OC(=O)c1ccccc1)c1ccccc1 (centres undefined)
inactive: dose: 12.5 mg/kg/injection, schedule: Q01DX009 (ip), vehicle: distilled water + Tween-80 102 % of control | dose: 25.0 mg/kg/injection, schedule: Q01DX009 (ip), vehicle: distilled water + Tween-80 102 % of control | dose: 50.0 mg/kg/injection, schedule: Q01DX009 (ip), vehicle: distilled water + Tween-80 94 % of control | dose: 100.0 mg/kg/injection, schedule: Q01DX009 (ip), vehicle: distilled water + Tween-80 102 % of control | dose: 200.0 mg/kg/injection, schedule: Q01DX009 (ip), vehicle: distilled water + Tween-80 93 % of control

Clc1c(-c2ccccc2)oc2nc3ccccc3nc12
inactive: [7] 116 % of control | [8] 110 % of control | [9] 111 % of control

COc1ccc(C2NC(C(=O)O)CS2)cc1OC (centres undefined)
inactive: dose: 50.0 mg/kg/injection, schedule: Q01DX009 (ip), vehicle: suspension in saline 95 % of control | dose: 100.0 mg/kg/injection, schedule: Q01DX009 (ip), vehicle: suspension in saline 95 % of control | dose: 200.0 mg/kg/injection, schedule: Q01DX009 (ip), vehicle: suspension in saline 87 % of control and 97 % of control

C=C1C(=O)OC2CC(C)C3C=CC(=O)C3CC12 (centres undefined)
inactive: dose: 0.15 mg/kg/injection, schedule: Q01DX009 (ip), vehicle: Klucel (hydroxypropylcellulose) (HPC) 98 % of control | dose: 0.3 mg/kg/injection, schedule: Q01DX009 (ip), vehicle: Klucel (hydroxypropylcellulose) (HPC) 100 % of control | dose: 0.6 mg/kg/injection, schedule: Q01DX009 (ip), vehicle: Klucel (hydroxypropylcellulose) (HPC) 99 % of control and 103 % of control | dose: 2.34 mg/kg/injection, schedule: Q01DX009 (ip), vehicle: Klucel (hydroxypropylcellulose) (HPC) 102 % of control | dose: 2.4 mg/kg/injection, schedule: Q01DX009 (ip), vehicle: Klucel (hydroxypropylcellulose) (HPC) 104 % of control

Cc1ccccc1-c1nc2cc(Cl)ccc2c(=O)o1
inactive: dose: 25.0 mg/kg/injection, schedule: Q01DX009 (ip), vehicle: saline with Tween-80 105 % of control | [4] 110 % of control | [5] 110 % of control

Nc1ccc(-c2ccc3ccccc3n2)cc1
inactive: dose: 3.13 mg/kg/injection, schedule: Q01DX009 (ip), vehicle: Klucel (hydroxypropylcellulose) (HPC) 103 % of control | dose: 6.25 mg/kg/injection, schedule: Q01DX009 (ip), vehicle: Klucel (hydroxypropylcellulose) (HPC) 101 % of control | dose: 12.5 mg/kg/injection, schedule: Q01DX009 (ip), vehicle: Klucel (hydroxypropylcellulose) (HPC) 106 % of control | dose: 25.0 mg/kg/injection, schedule: Q01DX009 (ip), vehicle: Klucel (hydroxypropylcellulose) (HPC) 88 % of control

Cc1nnc(Cc2ccccc2)c2n[nH]c(C)c12
inactive: dose: 50.0 mg/kg/injection, schedule: Q01DX009 (ip), vehicle: Klucel (hydroxypropylcellulose) (HPC) 98 % of control | dose: 100.0 mg/kg/injection, schedule: Q01DX009 (ip), vehicle: Klucel (hydroxypropylcellulose) (HPC) 103 % of control | dose: 200.0 mg/kg/injection, schedule: Q01DX009 (ip), vehicle: Klucel (hydroxypropylcellulose) (HPC) 95 % of control

Fc1ccc(C=NC23CC4CC(CC(C4)C2)C3)cc1
inactive: [4] 93 % of control | [5] 91 % of control | [6] 97 % of control

Nc1nc(N)c2c(n1)NCN(OCCOc1ccc(Cl)cc1Cl)C2
inactive: [7] 105 % of control | [8] 90 % of control

CN(C)c1ccc(N=C2C(c3ccccc3)=[N+]([O-])c3ccccc32)cc1
inactive: [7] 93 % of control | [8] 93 % of control | [9] 100 % of control

CC(C)OC(CCCl)c1ccc(Cl)cc1 (centres undefined)
inactive: dose: 100.0 mg/kg/injection, schedule: Q04DX003 (ip), vehicle: saline with Tween-80 109 % of control | dose: 200.0 mg/kg/injection, schedule: Q04DX003 (ip), vehicle: saline with Tween-80 100 % of control

[Cl][Ni][Cl].c1ccc2[nH]cnc2c1.c1ccc2[nH]cnc2c1
inactive: [10] 95 % of control | [11] 90 % of control | [12] 92 % of control
